Several values for one entry are separate records, joined by “and”; a condition that tells them apart may be missing. Equal values may be shown once.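 Protocol summary: plate cells (96-well), add compound at 5 concentrations, incubate 48 h, interpolate endpoints linearly. GI50: concentration for 50% inhibition of growth. TGI: concentration producing complete growth inhibition.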
Columns and labels:
Experiment in all cases: NCI-60 cell line screen, 48 h
HOP-62 NSCLC = tested on: HOP-62 NSCLC
RXF 393 renal = tested on: RXF 393 renal
HCT-15 colon = tested on: HCT-15 colon
ACHN renal = tested on: ACHN renal
IGROV1 ovarian = tested on: IGROV1 ovarian
CAKI-1 renal = tested on: CAKI-1 renal
NCI-H226 lung = tested on: NCI-H226 lung
U251 CNS = tested on: U251 CNS
MOLT-4 leukemia = tested on: MOLT-4 leukemia
CCRF-CEM leukemia = tested on: CCRF-CEM leukemia

Fc1ccc(-c2nn3c(COc4ccc(Cl)cc4)nnc3s2)cc1Oc1ccccc1
GI50 (HOP-62 NSCLC): 16.6 µM | TGI (HOP-62 NSCLC): 35.6 µM | GI50 (RXF 393 renal): 26.3 µM | TGI (RXF 393 renal): 87.5 µM | GI50 (HCT-15 colon): > 60.6 µM | TGI (HCT-15 colon): > 100 µM | GI50 (ACHN renal): 31.4 µM | TGI (ACHN renal): > 53.1 µM | GI50 (IGROV1 ovarian): 22.2 µM | TGI (IGROV1 ovarian): > 54.1 µM | GI50 (CAKI-1 renal): 34.9 µM | TGI (CAKI-1 renal): > 100 µM | GI50 (NCI-H226 lung): 28.7 µM | TGI (NCI-H226 lung): 84.4 µM | GI50 (U251 CNS): 25.1 µM | TGI (U251 CNS): > 53.5 µM | GI50 (MOLT-4 leukemia): 3.51 µM | TGI (MOLT-4 leukemia): 17.7 µM | GI50 (CCRF-CEM leukemia): 22.4 µM | TGI (CCRF-CEM leukemia): 74.4 µM

O=NN(CCCl)C(=O)NC1CCCCC1
GI50 (HOP-62 NSCLC): 51.9 µM and 113 µM | TGI (HOP-62 NSCLC): 154 µM and 213 µM | GI50 (RXF 393 renal): 18.1 µM and 76.4 µM | TGI (RXF 393 renal): 32.9 µM and 102 µM and 143 µM | GI50 (HCT-15 colon): 16.8 µM and 54.7 µM | TGI (HCT-15 colon): 33.5 µM and 103 µM and 115 µM | GI50 (ACHN renal): 23.2 µM and 82.7 µM | TGI (ACHN renal): 57.6 µM and 153 µM and 182 µM | GI50 (IGROV1 ovarian): 19.7 µM and 73.2 µM | TGI (IGROV1 ovarian): 57.4 µM and 150 µM and 162 µM | GI50 (CAKI-1 renal): 22.9 µM and 30.5 µM and 60.5 µM | TGI (CAKI-1 renal): 41.7 µM and 101 µM and 142 µM | GI50 (NCI-H226 lung): 25.2 µM | TGI (NCI-H226 lung): 68.2 µM and 150 µM and 180 µM | GI50 (U251 CNS): 15.8 µM and 64.7 µM | TGI (U251 CNS): 51.2 µM and 103 µM and 173 µM | GI50 (MOLT-4 leukemia): 20.7 µM and 36.1 µM | TGI (MOLT-4 leukemia): 38.4 µM and 99.1 µM and 80.3 µM | GI50 (CCRF-CEM leukemia): 8.23 µM and 22.6 µM | TGI (CCRF-CEM leukemia): 40.9 µM and 98.4 µM and 57.5 µM

CC1(C)CC[C@]2(C(=O)O)CC[C@]3(C)C(=CC[C@@H]4[C@@]5(C)C/C(=C/c6ccco6)C(=O)C(C)(C)[C@@H]5CC[C@]43C)[C@@H]2C1
GI50 (HOP-62 NSCLC): 3.75 µM | TGI (HOP-62 NSCLC): 14.9 µM | GI50 (RXF 393 renal): 3.3 µM | TGI (RXF 393 renal): 13.6 µM | GI50 (HCT-15 colon): 2.5 µM | TGI (HCT-15 colon): 13.4 µM | GI50 (ACHN renal): 2.89 µM | TGI (ACHN renal): 11.1 µM | GI50 (IGROV1 ovarian): 4.48 µM | TGI (IGROV1 ovarian): 22.2 µM | GI50 (CAKI-1 renal): 2.72 µM | TGI (CAKI-1 renal): 15.7 µM | GI50 (NCI-H226 lung): 3.42 µM | TGI (NCI-H226 lung): 19.5 µM | GI50 (U251 CNS): 3.45 µM | TGI (U251 CNS): 15 µM | GI50 (MOLT-4 leukemia): 1.04 µM | TGI (MOLT-4 leukemia): > 100 µM | GI50 (CCRF-CEM leukemia): 3.16 µM | TGI (CCRF-CEM leukemia): 31.6 µM

O=C1CCS/C(=N/S(=O)(=O)c2ccc(N3N=C4c5ccccc5CC4C3c3cccs3)cc2)N1Cc1ccccc1 (stereo not given)
GI50 (HOP-62 NSCLC): 18.6 µM | TGI (HOP-62 NSCLC): 34 µM | GI50 (RXF 393 renal): 21.2 µM | TGI (RXF 393 renal): 63.9 µM | GI50 (HCT-15 colon): 15.9 µM | TGI (HCT-15 colon): 31.7 µM | GI50 (ACHN renal): 14.9 µM | TGI (ACHN renal): 32.9 µM | GI50 (IGROV1 ovarian): 17.4 µM | TGI (IGROV1 ovarian): 52.4 µM | GI50 (CAKI-1 renal): 24 µM | TGI (CAKI-1 renal): 54.3 µM | GI50 (NCI-H226 lung): 26.5 µM | TGI (NCI-H226 lung): 59.3 µM | GI50 (U251 CNS): 14.4 µM | TGI (U251 CNS): 32.1 µM | GI50 (MOLT-4 leukemia): 47 µM | TGI (MOLT-4 leukemia): > 100 µM | GI50 (CCRF-CEM leukemia): 28 µM | TGI (CCRF-CEM leukemia): 75.7 µM

CN(C)c1ccc(N=C2C=CC(=C(C#N)C#N)c3ccccc32)cc1
TGI (HOP-62 NSCLC): 15.3 µM | TGI (RXF 393 renal): 8.6 µM | TGI (HCT-15 colon): 4.72 µM | TGI (ACHN renal): 10.6 µM | TGI (IGROV1 ovarian): 6.11 µM | TGI (CAKI-1 renal): 12.7 µM | TGI (NCI-H226 lung): 0.741 µM | TGI (U251 CNS): 6.53 µM | TGI (MOLT-4 leukemia): 8.04 µM | TGI (CCRF-CEM leukemia): 3.46 µM

CC1=C2[C@@H](CC1)[C@]1(C)O[C@@](C3CC3)(C[C@H]1OC(=O)CO)[C@H]2OC(=O)/C=C/c1ccccc1
GI50 (HOP-62 NSCLC): 15.4 µM | TGI (HOP-62 NSCLC): 30.2 µM | GI50 (RXF 393 renal): 0.0218 µM | TGI (RXF 393 renal): 0.858 µM | GI50 (HCT-15 colon): 13.6 µM | TGI (HCT-15 colon): 29.3 µM | GI50 (ACHN renal): 0.0339 µM | TGI (ACHN renal): 13.2 µM | GI50 (IGROV1 ovarian): 19.7 µM | TGI (IGROV1 ovarian): 42.7 µM | GI50 (CAKI-1 renal): 10.9 µM | TGI (CAKI-1 renal): 24 µM | GI50 (NCI-H226 lung): 16.2 µM | TGI (NCI-H226 lung): 36.5 µM | GI50 (U251 CNS): 15.6 µM | TGI (U251 CNS): 29.3 µM | GI50 (MOLT-4 leukemia): 15.1 µM | TGI (MOLT-4 leukemia): 36.9 µM | GI50 (CCRF-CEM leukemia): 17.4 µM | TGI (CCRF-CEM leukemia): 39.7 µM

— PubChem BioAssay (NCI)
